The text below walks through data of patent US20180085330A1, “Dose Adjustment” (AbbVie Inc., priority 2016, published 2018).

A short description of data set [1]: Potentially significant drug interactions identified in drug interaction studies (effect on concentration). In kind it is in vivo, human. The text has this:
Table 1 provides the effect of coadministration of glecaprevir and pibrentasvir on concentrations of concomitant drugs and the effect of concomitant drugs on glecaprevir and pibrentasvir.

Data set [2] in a line: Drug interaction studies: pharmacokinetic parameters of coadministered drug in the presence of glecaprevir/pibrentasvir. Particulars: digoxin 0.5 mg single dose; GLE/PIB 400/120 mg once daily. In kind it is in vivo, human. Here is the method: (§1) Drug interaction studies were performed with glecaprevir/pibrentasvir and other drugs that are likely to be coadministered and with drugs commonly used as probes for pharmacokinetic interactions.

Data set [3] in a line: Digoxin single dose with multiple doses of glecaprevir and pibrentasvir (Example 3). In kind it is in vivo, human (adult male and female subjects). An excerpt:
This Example assessed pharmacokinetics, safety, and tolerability of multiple doses of glecaprevir and pibrentasvir with a single dose of digoxin. Adult male and female subjects in general good health (N=12) were enrolled in the study.

A short description of data set [4]: Drug-drug interaction evaluation in overseas subjects, Phase 1 clinical studies (Example 6). In kind it is in vivo, human (overseas subjects). Particulars: coadministered with glecaprevir and pibrentasvir. Here is the method: The drug-drug interaction (DDI) of glecaprevir and pibrentasvir was characterized from Phase 1 clinical studies in overseas subjects. DDI was evaluated between glecaprevir and pibrentasvir and drug transporter and CYP probes (CYP3A4, CYP1A2, CYP2D6, CYP2C9 and CYP2C19) and concomitant medications used in HCV-infected subjects including anti-retroviral (ARVs), calcium-channel blockers (CCB), angiotensin-receptor blockers (ARBs), opioids and tacrolimus. Safety and tolerability were assessed throughout the studies.

The nature of data set [5]: Drug interaction studies: pharmacokinetic parameters of glecaprevir or pibrentasvir in the presence of coadministered drug. In kind it is in vivo, human. Here is the method:
as §1

Data set [6] deals with P-glycoprotein (P-gp) (Homo sapiens, UniProt P08183). The data set is described as follows: P-gp inhibition. In kind it is in vitro ADME.
The target of data set [7] is T1, breast cancer resistance protein (BCRP) (Homo sapiens, UniProt Q9UNQ0).
T1 sequence (Q9UNQ0 1-655): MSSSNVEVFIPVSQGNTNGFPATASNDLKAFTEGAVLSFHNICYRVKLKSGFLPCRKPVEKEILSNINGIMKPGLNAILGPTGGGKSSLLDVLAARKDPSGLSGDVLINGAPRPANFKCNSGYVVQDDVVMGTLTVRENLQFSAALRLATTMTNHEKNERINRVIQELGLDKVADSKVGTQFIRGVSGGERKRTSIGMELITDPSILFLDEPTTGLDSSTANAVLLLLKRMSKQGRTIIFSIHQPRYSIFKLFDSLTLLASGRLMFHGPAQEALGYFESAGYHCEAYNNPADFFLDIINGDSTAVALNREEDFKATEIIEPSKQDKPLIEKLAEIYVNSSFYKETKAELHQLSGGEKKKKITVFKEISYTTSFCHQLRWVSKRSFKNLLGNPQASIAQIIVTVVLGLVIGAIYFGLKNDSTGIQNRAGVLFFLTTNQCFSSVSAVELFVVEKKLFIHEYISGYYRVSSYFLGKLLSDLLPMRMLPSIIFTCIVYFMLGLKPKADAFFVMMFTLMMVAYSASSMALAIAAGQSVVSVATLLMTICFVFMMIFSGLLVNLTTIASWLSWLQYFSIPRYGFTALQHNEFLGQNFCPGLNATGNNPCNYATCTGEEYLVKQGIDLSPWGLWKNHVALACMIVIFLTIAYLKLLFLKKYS
The data set is described as follows: BCRP inhibition. In kind it is in vitro ADME.

For data set [8], the system named is organic anion transporting polypeptide (OATP) 1B1/3. Put plainly: OATP1B1/3 inhibition. In kind it is in vitro ADME.
The test system of data set [9] is cytochrome P450 (CYP) 3A. The data set is described as follows: CYP3A inhibition. In kind it is in vitro ADME.
Data set [10] addresses T2, CYP1A2 (Homo sapiens, UniProt P05177).
T2 sequence (P05177 1-516): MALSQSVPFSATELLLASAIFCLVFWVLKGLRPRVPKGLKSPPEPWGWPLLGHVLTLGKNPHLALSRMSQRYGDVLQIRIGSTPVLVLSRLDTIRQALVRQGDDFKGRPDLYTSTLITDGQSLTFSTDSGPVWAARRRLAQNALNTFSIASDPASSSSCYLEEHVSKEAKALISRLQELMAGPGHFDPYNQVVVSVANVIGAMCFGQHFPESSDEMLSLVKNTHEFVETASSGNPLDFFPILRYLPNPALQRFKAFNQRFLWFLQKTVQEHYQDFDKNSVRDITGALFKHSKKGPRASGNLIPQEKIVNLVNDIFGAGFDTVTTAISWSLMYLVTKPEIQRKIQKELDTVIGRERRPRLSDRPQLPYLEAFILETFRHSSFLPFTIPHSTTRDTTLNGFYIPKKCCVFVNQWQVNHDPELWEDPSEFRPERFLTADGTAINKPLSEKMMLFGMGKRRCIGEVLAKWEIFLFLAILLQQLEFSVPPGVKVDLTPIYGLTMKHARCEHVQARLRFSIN
The data set is described as follows: CYP1A2 inhibition. It counts as in vitro ADME.

In data set [11] the target is T3, uridine glucuronosyltransferase (UGT) 1A1 (Homo sapiens, UniProt P22309).
T3 sequence (P22309 26-533): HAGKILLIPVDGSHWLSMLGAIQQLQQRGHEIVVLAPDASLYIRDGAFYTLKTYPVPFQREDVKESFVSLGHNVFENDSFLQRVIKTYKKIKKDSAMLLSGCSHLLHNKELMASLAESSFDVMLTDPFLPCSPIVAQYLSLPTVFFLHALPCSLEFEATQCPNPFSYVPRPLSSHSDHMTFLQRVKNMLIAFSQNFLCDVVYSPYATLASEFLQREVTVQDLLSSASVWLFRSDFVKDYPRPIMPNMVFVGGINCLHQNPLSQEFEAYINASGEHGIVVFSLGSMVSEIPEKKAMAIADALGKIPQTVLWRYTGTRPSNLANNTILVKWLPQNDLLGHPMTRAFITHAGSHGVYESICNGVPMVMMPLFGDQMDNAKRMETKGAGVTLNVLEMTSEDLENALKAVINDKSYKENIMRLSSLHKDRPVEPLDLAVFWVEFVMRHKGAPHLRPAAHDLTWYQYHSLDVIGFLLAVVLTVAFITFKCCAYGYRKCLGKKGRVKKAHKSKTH
Put plainly: UGT1A1 inhibition. It counts as in vitro ADME.

For data set [12], the system named is P-gp and/or BCRP. The data set is described as follows: Substrate of P-gp and/or BCRP. It counts as in vitro ADME.
The subject of data set [13] is OATP1B1/3. The data set is described as follows: Substrate of OATP1B1/3. In kind it is in vitro ADME.
[14] abbreviates: digoxin 0.5 mg single dose with glecaprevir 400 mg QD + pibrentasvir 120 mg QD.
Where [15] appears, read: digoxin 0.5 mg single dose, glecaprevir 400 mg QD + pibrentasvir 120 mg QD.
The mark [16] stands for this setting: with atazanavir + ritonavir 300 + 100 mg once daily, GLE/PIB 300/120 mg once daily, effect on the first dose of glecaprevir and pibrentasvir.
[17] abbreviates: with carbamazepine 200 mg twice daily, GLE/PIB 300/120 mg single dose.
[18] abbreviates: with cyclosporine 100 mg single dose, GLE/PIB 300/120 mg once daily.
The mark [19] stands for this setting: with cyclosporine 400 mg single dose, GLE/PIB 300/120 mg single dose.
The mark [20] stands for this setting: with darunavir + ritonavir 800 + 100 mg once daily, GLE/PIB 300/120 mg once daily.
[21] abbreviates: with elvitegravir/cobicistat/emtricitabine/tenofovir alafenamide 150/150/200/10 mg once daily, GLE/PIB 300/120 mg once daily.
Setting [22] is: with lopinavir/ritonavir 400/100 mg twice daily, GLE/PIB 300/120 mg once daily.
Where [23] appears, read: with omeprazole 20 mg once daily, GLE/PIB 300/120 mg single dose.
Setting [24] is: with omeprazole 40 mg once daily (1 hour before GLE/PIB), GLE/PIB 300/120 mg single dose.
The mark [25] stands for this setting: with rifampin 600 mg (first close), GLE/PIB 300/120 mg single dose.
Setting [26] is: with rifampin 600 mg once daily, GLE/PIB 300/120 mg single dose 24 hours after final rifampin dose.

Where two headings read alike, the source gives them in different places.

Sequence of P-glycoprotein (P-gp) (P08183 whole entry): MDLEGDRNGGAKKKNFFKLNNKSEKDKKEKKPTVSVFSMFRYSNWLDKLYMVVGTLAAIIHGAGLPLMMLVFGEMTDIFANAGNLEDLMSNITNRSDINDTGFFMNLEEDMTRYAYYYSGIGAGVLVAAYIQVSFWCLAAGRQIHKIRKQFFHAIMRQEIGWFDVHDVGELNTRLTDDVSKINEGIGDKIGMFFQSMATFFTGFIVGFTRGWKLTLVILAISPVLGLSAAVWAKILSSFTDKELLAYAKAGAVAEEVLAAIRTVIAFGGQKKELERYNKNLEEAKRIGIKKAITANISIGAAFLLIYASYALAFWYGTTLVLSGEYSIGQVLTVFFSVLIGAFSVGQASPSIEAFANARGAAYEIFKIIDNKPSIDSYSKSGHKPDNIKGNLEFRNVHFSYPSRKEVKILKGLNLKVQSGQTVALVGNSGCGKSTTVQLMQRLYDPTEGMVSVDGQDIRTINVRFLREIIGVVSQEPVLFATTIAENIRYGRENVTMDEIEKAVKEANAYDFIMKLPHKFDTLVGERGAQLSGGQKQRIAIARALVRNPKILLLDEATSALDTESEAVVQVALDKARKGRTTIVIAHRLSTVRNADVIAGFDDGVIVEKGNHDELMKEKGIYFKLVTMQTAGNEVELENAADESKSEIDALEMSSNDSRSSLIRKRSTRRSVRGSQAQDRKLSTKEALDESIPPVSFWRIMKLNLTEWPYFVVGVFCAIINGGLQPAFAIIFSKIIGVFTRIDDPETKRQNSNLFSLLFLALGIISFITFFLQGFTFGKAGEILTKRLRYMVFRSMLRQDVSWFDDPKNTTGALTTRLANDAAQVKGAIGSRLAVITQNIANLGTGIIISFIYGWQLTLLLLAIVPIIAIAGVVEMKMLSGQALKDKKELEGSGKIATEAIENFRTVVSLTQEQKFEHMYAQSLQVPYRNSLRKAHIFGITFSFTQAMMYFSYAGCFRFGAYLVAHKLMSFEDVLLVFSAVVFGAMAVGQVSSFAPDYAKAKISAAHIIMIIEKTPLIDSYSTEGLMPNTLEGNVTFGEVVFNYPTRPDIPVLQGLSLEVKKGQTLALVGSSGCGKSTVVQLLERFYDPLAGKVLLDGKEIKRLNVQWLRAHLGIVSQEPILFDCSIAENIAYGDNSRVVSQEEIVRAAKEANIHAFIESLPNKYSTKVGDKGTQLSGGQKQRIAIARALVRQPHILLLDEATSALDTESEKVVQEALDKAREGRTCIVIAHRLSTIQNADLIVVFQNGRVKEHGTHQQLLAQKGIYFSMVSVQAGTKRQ

Take `C[C@H]1O[C@@H](O[C@H]2[C@@H](O)C[C@H](O[C@H]3[C@@H](O)C[C@H](O[C@H]4CC[C@@]5(C)[C@H](CC[C@@H]6[C@@H]5C[C@@H](O)[C@]5(C)[C@@H](C7=CC(=O)OC7)CC[C@]65O)C4)O[C@@H]3C)O[C@@H]2C)C[C@H](O)[C@@H]1O` [digoxin]: the “Effect on Concentration” value in data set [1] (concentration of the concomitant drug when coadministered with glecaprevir and pibrentasvir) is recorded as “↑ digoxin”. Further, in data set [2], the “Central Value Ratio (90% CI) AUC” value came out at 1.48 and the “Central Value Ratio (90% CI) Cmax” value amounted to 1.72. In addition, in data set [3] (setting [14]), the “AUCinf higher when coadministered, compared to digoxin alone” value amounted to 48% and the “Cmax higher when coadministered, compared to digoxin alone” value is on record as 72%. For the same molecule, in data set [3] (setting [15]), the “fraction of digoxin eliminated in urine, difference with and without glecaprevir and pibrentasvir” value is reported as at most 18%; the “renal clearance, difference with and without glecaprevir and pibrentasvir” value was at most 18%. In data set [4], the AUC increase turned out to be 48%.

For `CC(C)(C)[C@@H]1NC(=O)O[C@@H]2CCC[C@H]2OC/C=C/C(F)(F)c2nc3ccccc3nc2O[C@@H]2C[C@@H](C(=O)N[C@]3(C(=O)NS(=O)(=O)C4(C)CC4)C[C@H]3C(F)F)N(C2)C1=O` [glecaprevir, Glecaprevir], the “Effect on Concentration” value in [1] (concomitant Darunavir, Lopinavir, Ritonavir) is “↑ glecaprevir”; in [1] (concomitant St. John's Wort (hypericum perforatum)), “↓ glecaprevir”; in data set [1] (concomitant drug Carbamazepine) it was “↓ glecaprevir”; in data set [1] (concomitant drug Cyclosporine) it was “↑ glecaprevir”; in [1] (concomitant drug Efavirenz) it was “↓ glecaprevir”. Moreover, the “Central Value Ratio (90% CI) AUC” value is given as at least 6.53 in data set [5] (setting [16]); 0.34 in data set [5] (setting [17]); 1.37 in data set [5] (setting [18]); 5.08 in data set [5] (setting [19]); 4.97 in data set [5] (setting [20]); 3.05 in data set [5] (setting [21]). Further, the “Central Value Ratio (90% CI) AUC” value is 4.38 in [5] (setting [22]); 0.71 in [5] (setting [23]); 0.49 in data set [5] (setting [24]); 8.55 in data set [5] (setting [25]); 0.12 in [5] (setting [26]). The “Central Value Ratio (90% CI) Cmax” value is on record as at least 4.06 in data set [5] (setting [16]); 0.33 in data set [5] (setting [17]); 1.30 in [5] (setting [18]); 4.51 in data set [5] (setting [19]); 3.09 in [5] (setting [20]); 2.50 in [5] (setting [21]). In addition, the “Central Value Ratio (90% CI) Cmax” value in [5] (setting [22]) is given as 2.55; in data set [5] (setting [23]), 0.78; in data set [5] (setting [24]), 0.36; in data set [5] (setting [25]), 6.52; in data set [5] (setting [26]), 0.14. Further, the “Central Value Ratio (90% CI) Cmin” value in data set [5] (setting [16]) is recorded as at least 14.3; in data set [5] (setting [18]) it was 1.34; in data set [5] (setting [20]) it was 8.24; in data set [5] (setting [21]) it was 4.58; in data set [5] (setting [22]) it was 18.6. In data set [6], the “inhibition of P-gp” value was “inhibitors”. In addition, the “inhibition of BCRP” value in data set [7] was “inhibitors”. The “inhibition of OATP1B1/3” value is “inhibitor” in data set [8] and “inhibitors” in data set [8] (listed as Glecaprevir). In addition, in data set [9], the “inhibition of CYP3A” value is “weak inhibitors”. Besides, the “inhibition of CYP1A2” value in [10] is “weak inhibitors”. In [11], the “inhibition of UGT1A1” value is “weak inhibitors”. Further, the “substrate of P-gp and/or BCRP” value in [12] was “substrates”. Also, the “substrate of OATP1B1/3” value in data set [13] is reported as “substrate”.

For `COC(=O)N[C@H](C(=O)N1CCC[C@H]1c1nc2cc([C@H]3CC[C@H](c4cc5nc([C@@H]6CCCN6C(=O)[C@@H](NC(=O)OC)[C@@H](C)OC)[nH]c5cc4F)N3c3cc(F)c(N4CCC(c5ccc(F)cc5)CC4)c(F)c3)c(F)cc2[nH]1)[C@@H](C)OC` [pibrentasvir], the “inhibition of P-gp” value in data set [6] is given as “inhibitors”. For the same molecule, the “inhibition of BCRP” value in data set [7] is on record as “inhibitors”. The “inhibition of OATP1B1/3” value in [8] was “inhibitors”. In addition, the “inhibition of CYP3A” value in data set [9] is on record as “weak inhibitors”. Further, the “inhibition of CYP1A2” value in [10] was “weak inhibitors”. Further, in [11], the “inhibition of UGT1A1” value is recorded as “weak inhibitors”. Moreover, in data set [12], the “substrate of P-gp and/or BCRP” value is on record as “substrates”.
